In article PMC6359543, “Efficacy of Azatyrosine-Phenylbutyric Hydroxamides, a Histone Deacetylase Inhibitor, on Chemotherapy-Induced Gastrointestinal Mucositis” (International Journal of Molecular Sciences, 2019):
Each block holds one molecule with its values, some of them ahead of it.

Legend:
[1] = system: Salmonella typhimurium TA100; format: cell-based
[2] = system: Salmonella typhimurium TA102; conditions: Positive Control: 2-aminoanthrene 5 µg /plate
Method: Five strains of Salmonella typhimurium, TA98, TA102, TA100, TA1537, and TA1535, were obtained from Moltox (Boone, NC, USA). Mutagenicity was evaluated by the incorporation method in the presence or absence of S9 metabolic activation. A volume of 100 µL of each test bacterial culture (10^9 cells/mL), 2 mL soft agar (0.6% agar, 0.5% NaCl, 5 mM histidine, and […], pH 7.4, 40–50 °C), 0.5 mL S9 mixture (if necessary), and AzP were mixed well in a test tube. […] The revertant colonies were counted, and a positive mutagenic response was identified when (i) the number of revertants was at least double the spontaneous yield; (ii) a statistical significance (p ≤ 0.05) was found; and (iii) a reproducible positive dose response was present.

[3] = system: Salmonella typhimurium TA1535; format: cell-based
[4] = system: Salmonella typhimurium TA1537; assay: Salmonella/microsome reversion assay (Ames test), TA1537; format: cell-based
[5] = system: Salmonella typhimurium TA98; assay: Salmonella/microsome reversion assay (Ames test), TA98; format: cell-based; conditions: Positive Control: 4-Nitro-o-phenylenediamine 2.5 µg / plate
[6] = system: male ICR mice; assay: Micronucleus test; conditions: Cyclophosphamide 200 mg/kg
Method: Male ICR mice (n = 5) were administered AzP orally by gavage, at doses of 5, 50, and 500 mg/kg body weight. […] At 24, 48, and 72 h after dosing, 2-μL blood samples were collected from the tail vein onto a slide stained with acridine orange (40 μg/mL). The ratio (%) of polychromatic erythrocytes (PCEs) to total erythrocytes was determined using fluorescence microscopy. In addition, the frequency of micronucleated polychromatic erythrocytes (MNPCEs; ‰) was counted to a total of 1000 erythrocytes or PCEs per animal.

[7] = system: Chinese Hamster Ovary cells (CHO-K1); assay: Chromosome aberration assay; format: cell-based; conditions: Mitomycin C 1µg/mL
Method: Chinese hamster ovary epithelial cells (CHO-K1, American Type Culture Collection, Manassas, VA, USA) were cultured in 6-cm dishes at a density of 2 × 10^5 cells/mL for chromosomal abnormality analysis. […] Colemid (0.1 μg/mL) was administered 3 h before trypsinization, followed by treatment with 0.9% sodium citrate at 37 °C and Carnoy’s solution (methanol:acetic acid, 3:1). The cells were stained with 3% Giemsa solution in 0.07 M phosphate buffer (pH 6.8) on glass slides. […] The data were expressed as the total mean number of chromosomal aberrations per treatment ± standard deviation (SD) from three independent experiments.

[8] = system: C57BL/6 mice; conditions: mouse, in vivo, ip, 11 mg/kg
[9] = system: IEC-6 cells; assay: LPS-induced MAPK/Akt phosphorylation in IEC-6 cells (Western blot); format: cell-based, Rat; conditions: LPS 500 ng/mL, 10 min
Method: Figure 6 Western blotting of IEC-6 cells treated with LPS and/or AzP. (A) IEC-6 cells (1 × 10^6 cells/mL) were dispensed on 6 cm dishes and (A) treated with LPS (500 ng/mL) for 10, 20, 30, 60, and 90 min. Data expressed as means ± SD from 3 independent experiments. * p < 0.05 as compared with the resting. (B) Treatment with LPS (500 ng/mL) for 10 min as indicated. Cells were treated with the indicated concentrations of AzP (5, 10, and 20 μM) or vehicle for 30 min before treatment with LPS. Cell lysates were collected for Western blot targeting p-ERK phosphorylation (Thr202/Tyr204, B), MEK phosphorylation ([…], C), and Akt phosphorylation (Ser473, D). Data expressed as means ± SD from 3 independent experiments. ### p < 0.001 as compared with the resting, * p < 0.05, ** p < 0.01 and *** p < 0.001 as compared with the vehicle.
IEC-6 cells were incubated in different AzP concentrations with/without LPS stimulation for 24 h. The homogenate from cells or tissues was then centrifuged at 14,000× g for 10 min at 4 °C and the supernatant was collected. Protein separation was performed using 10% reducing SDS-PAGE, electrotransferred onto polyvinylidene difluoride (PVDF), and immunoblotted with antibodies against inflammatory proteins as well as β-actin as control. Densitometry was performed using BioLight software V2000.01 (Uhldingen-Mühlhofen, Germany). The optical density of specific protein was normalized to an internal control and expressed as a ratio to control.

[10] = Positive Control: 2-aminoanthrene 5 µg /plate
[11] = 3 hours without S9 metabolic activation
[12] = 24 hours without S9 metabolic activation
[13] = Positive Control: Sodium Azide 5 µg / plate

Molecule: Nc1ccc2cc3ccccc3cc2c1 [2-aminoanthrene, reference compound]
Revertant colonies per plate (+S9) TA100 [1, 10]: 1514.7±6.9
Revertant colonies per plate (+S9) TA102 [2]: 1409.8±78.2
Revertant colonies per plate (+S9) TA1535 [3, 10]: 1182.9±81.6
Revertant colonies per plate (+S9) TA1537 [4, 10]: 1282.8±109

Molecule: Nc1ccc([N+](=O)[O-])cc1N [4-Nitro-o-phenylenediamine, reference compound]
Revertant colonies per plate (-S9) TA98 [5]: 1549.3±37.6

Molecule: Nc1c2ccccc2nc2ccccc12 [9-Aminoacridine, reference compound]
Revertant colonies per plate (-S9) TA1537 ([4]; Positive Control: 9-Aminoacridine 50 µg /plate): 1671.8±184

Molecule: O=P1(N(CCCl)CCCl)NCCCO1 (stereo not drawn) [Cyclophosphamide, reference compound]
Reticuloctes(%) ([6]; Day 1): 1.60±0.12 %
Reticuloctes(%) ([6]; Day 2): 0.93±0.07 %
Reticuloctes(%) ([6]; Day 3): 1.07±0.16 %

Aberrant cell (%) With gap [7, 11]: 7.67±1.15 %
Number of cells with structural aberrations (%) B: chromosome break [7, 11]: 0.00±0.00%
Number of cells with structural aberrations (%) G: chromosome gap [7, 11]: 0.00±0.00%
Number of cells with structural aberrations (%) e: exchange [7, 11]: 2.00±1.00 %
Aberrant cell (%) With gap [7, 12]: 10.00±1.73 %
Number of cells with structural aberrations (%) B: chromosome break [7, 12]: 0.00±0.00%
Number of cells with structural aberrations (%) G: chromosome gap [7, 12]: 0.00±0.00%
Number of cells with structural aberrations (%) e: exchange [7, 12]: 4.33±2.52 %
Molecule: CO[C@@]12[C@H](COC(N)=O)C3=C(C(=O)C(C)=C(N)C3=O)N1C[C@@H]1N[C@@H]12 [Mitomycin C, reference compound]

Molecule: [N-]=[N+]=[N-].[Na+] [Sodium Azide, reference compound]
Revertant colonies per plate (-S9) TA100 [1, 13]: 1433.6±94.4
Revertant colonies per plate (-S9) TA1535 [3, 13]: 1506.7±62.3

Molecule: N.N.[Cl][Pt][Cl] [cisplatin, reference compound]
Relative mean body weight (day 0 = 100%) [8]: 76.0 ± 4.7%

Molecule: lipopolysaccharide [LPS, reference compound]
ERK phosphorylation compared to the control [9]: 1.8 ± 0.3 fold
